Here are results for 69 compounds from ChEMBL document CHEMBL5604061, “ASAP - WNV NS2B-NS3 protease fluorescence dose response” (2024).

“And” between values parts separate entries of the source, which are not always exact repeats. Equal entries are not always repeated.

This assay concerns the target T1, NS3 (West Nile virus, UniProt K4FQI5).
T1 sequence (K4FQI5 whole entry): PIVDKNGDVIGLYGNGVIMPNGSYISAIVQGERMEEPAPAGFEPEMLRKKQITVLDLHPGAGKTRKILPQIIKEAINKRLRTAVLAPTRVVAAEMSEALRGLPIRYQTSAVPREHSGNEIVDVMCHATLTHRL
As to the kind of experiment: Functional biochemical assay to identify treatments for viral infectious disease that targets West Nile NS2B-NS3 protease. Utilizing a direct enzyme activity measurement method, reading the fluorescence intensity is used to characterize the relative potency of inhibitors as IC50. Set-up: species or system NY-99.

In general, IC50 refers to the midpoint of a concentration-inhibition curve. `CCc1nc2c(C(=O)Nc3ccc4c(c3)CNC4)cc(Br)cc2[nH]1` gave an IC50 of 55.9 µM.

The compound `CS(=O)(=O)c1cc2c(cc1NC(=O)c1cc(F)cc3[nH]ncc13)CNC2` registered an IC50 of 2.51 µM.

Consider `O=C(Nc1ccc2c(c1)CNC2)c1cccc2[nH]ncc12`, for which it took 4.33 µM to reach half-maximal inhibition (IC50).

In turn, `NS(=O)(=O)c1ccc(C2CCN(Cc3c[nH]c4ccccc34)CC2)cc1` showed a concentration for half-maximal inhibition (IC50) greater than 99.5 µM.

With `CN(c1ccc2c(c1)CNC2)[C@H](C(=O)NCC(F)F)c1cc(Cl)cc(C2CC2)c1`, the half-inhibitory concentration (IC50) was found to be 0.131 µM.

For the compound `COc1ccc(-c2nc3c(C(=O)Nc4ccc5c(c4)CNC5)cc(F)cc3[nH]2)nn1`, the IC50 amounted to 3.68 µM.

For the compound `O=C(Nc1ccc2c(c1)CNC2)c1ccc2c(C3=CCNCC3)csc2c1`, the IC50 was found to be 7.5 µM.

As for `Cn1nccc1-c1cc(NC(=O)c2cc(F)cc3[nH]ncc23)cc2c1CNC2`, the midpoint of inhibition, the IC50, lay at 1.43 µM. Against the preceding compound, the IC50 is about 5.2-fold lower.

`O=C(Nc1cc(Cl)cc(C(=O)Nc2cccc(-n3nn[nH]c3=O)c2)c1)OCc1ccccc1` returned a concentration for half-maximal inhibition (IC50) of 32.9 µM.

Compound `CC(C)c1nn(C)cc1-c1cc(F)cc(C(=O)Nc2ccc3c(c2)CNC3)c1` registered a half-maximal inhibitory concentration (IC50) of 11.9 µM.

Consider `CC(C)c1nc2c(C(=O)Nc3ccc4c(c3)CNC4)cc(Br)cc2[nH]1`, for which the concentration for half-maximal inhibition (IC50) was greater than 99.5 µM.

The compound `O=C(Nc1ccc2c(c1)CNC2)c1cc(F)cc(-c2cnc(C3CC3)s2)c1` came in with an IC50 of 1.99 µM.

In the case of `O=C(Nc1ccc2c(c1)CNC2)c1cc(Cl)cc(N2CCCC2)c1`, it took 42.8 µM to reach half-maximal inhibition (IC50).

With `O=C1Cc2c(cc(F)cc2C(=O)Nc2ccc3c(c2)CNC3)N1`, the IC50 is 0.537 µM and 0.576 µM.

On to `Nc1nc2c(Br)cc(C(=O)Nc3ccc4c(c3)CNC4)cc2s1`, for which the half-maximal inhibitory concentration (IC50) is greater than 99.5 µM.

As for `O=C(Nc1ccc2c(c1)CNC2)c1cc(F)cc2[nH]c(-c3ccc(F)cc3)nc12`, the IC50 stood at 5.37 µM. This counts as single-digit micromolar.

`NCCc1ccc([C@H]2C[C@@H]2c2cc(Cl)cc(NC(=O)OCc3ccccc3)c2)cc1`: half-maximal inhibition (IC50) required 7.12 µM. This IC50 and that of the compound before are within 1.5-fold of each other.

`Cn1ncc2c(C(=O)Nc3ccc4c(c3)CNC4)cc(Cl)cc21` returned a half-inhibitory concentration (IC50) of 1.88 µM.

Compound `NCc1cccc(NC(=O)[C@H](NC(=O)OCc2ccccc2)C2CCC(c3ccccc3)CC2)c1` (some centres undefined) came in with an IC50 of 8.31 µM.

As to `O=C(Nc1ccc2c(c1)CNC2)c1cc(Cl)cc2[nH]c(-c3ccc(F)cc3O)nc12`, the 50% inhibitory concentration (IC50) was greater than 99.5 µM.

The compound `CCc1cnccc1-c1nc2c(C(=O)Nc3ccc4c(c3)CNC4)cc(Cl)cc2[nH]1` showed a half-maximal inhibitory concentration (IC50) greater than 99.5 µM.

Compound `O=C(O)c1cc(Cl)ccc1S(=O)(=O)NC1CCN(c2nc(C3CC3)cc(C(F)(F)F)n2)CC1` showed an IC50 of 48.5 µM. That is a double-digit micromolar value.

`CNC(=O)[C@H](Nc1cc(Cl)cc2[nH]ncc12)c1ccc2c(c1)CNC2` came in with an IC50 of 88.4 µM.

Compound `O=C(O)c1cc(Oc2ccc(F)cc2)c(F)cc1NS(=O)(=O)c1ccc(Oc2ccccc2Cl)cc1` yielded an IC50 of 3.39 µM.

In turn, `O=C(Nc1ccc2c(c1)CNC2)c1cc(Cl)cc2c1NCCC2` returned an IC50 greater than 99.5 µM.

`Cc1ncc(-c2cc(F)cc(C(=O)Nc3ccc4c(c3)CNC4)c2)s1`: the IC50 was determined as 2.28 µM.

Compound `O=C(NCC(F)F)[C@H](Nc1ccc2c(c1)CNC2)c1cccc(Cl)c1` yielded a half-inhibitory concentration (IC50) of 0.477 µM.

On to `O=C(NCCC1CC1)[C@H](Nc1ccc2c(c1)CNC2)c1cc(Cl)cc(C2CC2)c1`, for which the IC50 amounted to 0.698 µM.

The compound `O=C(Nc1ccc2c(c1)CNC2)c1cc(F)cc2[nH]c(CC[C@H]3CCCOC3)nc12` registered a 50% inhibitory concentration (IC50) of 3.78 µM. Compared with the last compound, the IC50 is about 5.4-fold higher.

With `O=C(Nc1ccc2c(c1)CNC2)c1cc(F)cc2[nH]cnc12`, 13.5 µM corresponded to half-maximal inhibition (IC50).

Regarding `CCc1cc(C(=O)Nc2cccc(-n3nn[nH]c3=O)c2)sc1-c1ccc(Cl)cc1`, the half-maximal inhibitory concentration (IC50) came out at 20.1 µM. The IC50 values of the last two compounds are within 1.5-fold of each other.

In turn, `O=C(Nc1ccc2c(c1)CNC2)c1cc(Cl)cc2[nH]c(-c3ccnn3C3CC3)nc12` returned an IC50 of 18.6 µM.

Compound `Nc1cc(Cl)cc(C(=O)Nc2ccc3c(c2)CNC3)c1N` had an IC50 of 33.3 µM. Compared with the last compound, the IC50 is about 1.8-fold higher.

The compound `CC(C)NC(=O)[C@H](Nc1ccc2c(c1)CN(C)C2)c1cc(Cl)cc2[nH]ncc12` displayed an IC50 of 1.67 µM. Against the preceding compound, the IC50 is about 20-fold lower.

The compound `CSCCCNC(=O)[C@H](Nc1ccc2c(c1)CNC2)c1cc(Cl)cc(C2CC2)c1` registered an IC50 of 0.573 µM.

Compound `N=C(N)NCCc1ccc(NC(=O)Oc2ccccc2)cc1` had an IC50 of 72.1 µM. Compared with the last compound, the IC50 is about 130-fold higher.

`NCc1cccc(CNC(=O)[C@H](NC(=O)OCc2ccccc2)c2ccc(OCc3ccccc3)cc2)c1` registered an IC50 of 13.3 µM. This IC50 lies about 5.4-fold lower than the previous one.

With `CO[C@H](C)Cn1cc2c(C(=O)Nc3ccc4c(c3)CNC4)cc(Cl)cc2n1`, 19.8 µM corresponded to half-maximal inhibition (IC50).

Compound `CCCCCC(=O)N[C@H](C(=O)Nc1ccc(C(N)=O)cc1)c1ccc(OCc2ccccc2)cc1` had an IC50 greater than 99.5 µM.

Compound `O=C(Nc1ccc2c(c1)CNC2)c1cc(Br)cc2[nH]c(C3CCOCC3)nc12` yielded a half-maximal inhibitory concentration (IC50) greater than 99.5 µM.

Turning to `c1ccc2c(CN3CCC(c4c[nH]c5cccnc45)CC3)c[nH]c2c1`, the 50% inhibitory concentration (IC50) is greater than 99.5 µM.

For `O=C(Nc1ccc2c(c1)CCNCC2)c1cc(Cl)cc2[nH]ncc12`, inhibition was half-maximal at 48.5 µM (IC50).

As to `N[C@H]1Cc2ccc(NC(=O)c3cc(Cl)cc(NC(=O)OCc4ccccc4)c3)cc2C1`, the IC50 came to 35.9 µM.

With `CC(=O)Nc1cc(Br)cc(C(=O)Nc2ccc3c(c2)CNC3)c1`, it took 31.5 µM to reach half-maximal inhibition (IC50).

Consider `CCOCC1(c2nc3c(C(=O)Nc4ccc5c(c4)CNC5)cc(Cl)cc3[nH]2)CC1`, for which the half-maximal inhibitory concentration (IC50) was greater than 99.5 µM.

The compound `CC(C)(c1nc2c(C(=O)Nc3ccc4c(c3)CNC4)cc(F)cc2[nH]1)S(C)(=O)=O` had an IC50 of 9.71 µM.

On to `NCc1ccc(-c2ncc(OCC3CCNCC3)nc2-c2ccc(C3CCOCC3)cc2)cc1`, for which the IC50 is greater than 99.5 µM.

As to `c1cc(C2CCN(Cc3c[nH]c4ccccc34)CC2)c2ccncc2c1`, the half-maximal inhibitory concentration (IC50) is greater than 99.5 µM.

For `O=C(NC[C@H]1CCCO1)[C@H](Nc1ccc2c(c1)CNC2)c1cc(Cl)cc(C2CC2)c1`, it took 0.498 µM to reach half-maximal inhibition (IC50). This counts as sub-micromolar.

As to `CCCCCC(=O)N[C@H](C(=O)NCc1cccc(CN)c1)c1ccc(OCc2ccccc2)cc1`, the IC50 turned out to be 72.3 µM.

`O=C(Nc1ccc2c(c1)CNC2)c1cc(F)cc2[nH]c(-c3ccccc3)nc12` showed an IC50 of 16 µM.

As for `O=C(Nc1ccc2c(c1)CNC2)c1cc(Br)cc2ccccc12`, it took 57.6 µM to reach half-maximal inhibition (IC50). Compared with the last compound, the IC50 is about 3.6-fold higher.

`O=C(Nc1ccc2c(c1)CNC2)c1cc(F)c2[nH]c(=O)[nH]c2c1` yielded an IC50 of 18 µM.

`CC(C)c1cc(Br)cc(C(=O)Nc2ccc3c(c2)CNC3)c1`: inhibition was half-maximal at 93.2 µM (IC50).

`O=C(NCCCn1ccnc1)[C@H](Nc1ccc2c(c1)CNC2)c1cc(Cl)cc(C2CC2)c1` returned a 50% inhibitory concentration (IC50) of 0.839 µM. Against the preceding compound, the IC50 is about 110-fold lower.

`CNC(=O)c1cccc(C(=O)Nc2ccc3c(c2)CNC3)c1` registered an IC50 of 36.8 µM.

For the compound `O=C(Nc1ccc2c(c1)CNC2)c1cc(Cl)cc2cn[nH]c12`, the IC50 amounted to 7.83 µM.

`N#C[C@H](Nc1cccc(-c2nn[nH]n2)c1)c1cc(Cl)cc(NC(=O)OCc2ccccc2)c1` came in with an IC50 of 28.7 µM.

For `CN(C)C(=O)CCCc1nc2c(C(=O)Nc3ccc4c(c3)CNC4)cc(Cl)cc2[nH]1`, the IC50 was greater than 99.5 µM.

In turn, `O=C(Nc1ccc2c(c1)CNC2)c1cncc2[nH]ncc12` had a half-inhibitory concentration (IC50) of 20.8 µM.

As for `Cc1c(C(=O)Nc2cc(CCCN)ccn2)cc(C2CC2)n1C`, the half-maximal inhibitory concentration (IC50) is 58.6 µM.

As for `CN1C(=O)CC[C@H]1c1nc2c(C(=O)Nc3ccc4c(c3)CNC4)cc(F)cc2[nH]1`, the IC50 came to 14.1 µM. This IC50 is about 4.2-fold lower than that of the compound before.

Take `CNC(=O)[C@H](Nc1cc(Cl)cc(NC(=O)OCc2ccccc2)c1)c1cccc(-c2nn[nH]n2)c1`: the 50% inhibitory concentration (IC50) is greater than 99.5 µM.

In turn, `O=C(Nc1ccc2c(c1)CNCCC2)c1cc(Cl)cc2[nH]ncc12` gave a half-inhibitory concentration (IC50) of 3.25 µM.

On to `O=C(Nc1ccc2c(c1)CNC2)c1cccc(-c2cnco2)c1`, for which the half-maximal inhibitory concentration (IC50) is 38.4 µM.

On to `NCCc1csc2cc(C(=O)Nc3ccc4c(c3)CNC4)ccc12`, for which the IC50 came out at 2.09 µM.

With `NCc1cc(Cl)cc(C(=O)Nc2ccc3c(c2)CNC3)c1`, the IC50 was 9.96 µM.

`Cc1c(C(=O)Nc2cc([C@H]3CCOC3)ccn2)cc(C2CC2)n1C` registered a half-inhibitory concentration (IC50) of 2.68 µM.

With `O=C(Nc1ccc2c(c1)CNC2)c1cc(F)cc(-c2ccncc2)c1`, the half-inhibitory concentration (IC50) worked out at 3.65 µM.
